Values joined by “and” are separate entries in the source; they are usually repeats but may differ in a detail not shown here. Identical values can stand only once.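 48-hour exposure; five concentrations; linearly interpolated endpoints. Abbreviation: GI50, concentration required for 50% inhibition of growth. TGI is the concentration that stops growth completely.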
What was measured:
Experiment in all cases: inhibition of tumour cell growth, NCI panel, 48 h
[1] = system: SR leukemia
[2] = system: SK-MEL-28 melanoma
[3] = system: T-47D breast
[4] = system: MDA-MB-231 breast
[5] = system: MALME-3M melanoma
[6] = system: MDA-N
[7] = system: NCI/ADR-RES ovarian
[8] = system: HCC-2998 colon
[9] = system: SNB-75 CNS
[10] = system: PC-3 prostate

SMILES | TGI [1] [µM] | TGI [2] | TGI [3] [µM] | TGI [4] [µM] | TGI [5] | TGI [6] [µM] | TGI [7] | TGI [8] | TGI [9] | TGI [10] [µM] | GI50 [4] [µM] | GI50 [7] [µM] | GI50 [10] [µM] | GI50 [2] [µM] | GI50 [5] [µM] | GI50 [8] [µM] | GI50 [9] [µM] | GI50 [3] [µM] | GI50 [1] [µM]
C/C=C/[P+](c1ccccc1)(c1ccccc1)c1ccccc1 | 2.58 | 17.5 µM | 1.43 | 14.4 | 13.6 µM | 10.6 | > 100 µM | 3.82 µM | 19.9 µM | > 63.8 | – | – | – | – | – | – | – | – | –
CN(C)c1ccc(/C=N\NC(=O)CSCC(=O)N/N=C/c2ccc(N(C)C)cc2)cc1 | > 100 | > 100 µM | 88.6 | 58.6 | > 100 µM | – | > 100 µM | – | > 100 µM | > 100 | – | – | – | – | – | – | – | – | –
O=c1ccc2cc(O)c(O)cc2o1 | > 100 | > 100 µM | > 100 | > 100 | > 100 µM | > 100 | > 100 µM | > 100 µM | > 100 µM | > 100 | – | – | – | – | – | – | – | – | –
NC(=O)CCCC(NCc1c2ccccc2nc2ccccc12)C(=O)O (centres undefined) | > 100 | > 100 µM | – | – | > 100 µM | – | – | > 100 µM | > 100 µM | – | – | – | – | – | – | – | – | – | –
O=c1oc2ccccc2c2c(=O)c3ccc(OC/C(=N/O)c4ccc(Cl)cc4)cc3oc12 | 8.27 | – | 88.4 | 43.2 | – | 10.9 | 31.4 µM | – | – | 24.5 | – | – | – | – | – | – | – | – | –
CN(C)CCNc1nc(-c2ccc3ccccc3c2)nc2nc[nH]c12 | 24.7 | 28.9 µM | 29.7 | 26.5 | 16.6 µM | 23.2 | 22.9 µM | 10.6 µM | 4.44 µM | 18.4 | – | – | – | – | – | – | – | – | –
NC(N)=N/N=C/c1c(-c2ccccc2)nc2n1ccc1nc(-c3ccccc3)c(/C=N/N=C(N)N)n12 | – | > 100 µM | > 100 | > 100 | 84 µM | – | > 100 µM | – | > 100 µM | > 100 | – | – | – | – | – | – | – | – | –
Cc1ccc(S(=O)(=O)NCCSCCNS(=O)(=O)c2ccc(C)cc2)cc1 | > 100 | > 100 µM | > 100 | > 100 | – | > 100 | > 100 µM | > 100 µM | > 100 µM | > 100 | – | – | – | – | – | – | – | – | –
O=S(=O)(Sc1ccc(Cl)cc1)c1ccc(Cl)cc1 | 45 | 31.1 µM | – | – | 48.9 µM | – | – | 40.7 µM | 40.5 µM | – | – | – | – | – | – | – | – | – | –
CC(=O)Nc1ccccc1SCCSSCCSc1ccccc1NC(C)=O | > 100 | – | 92.9 | 91.4 | > 100 µM | 68.7 | 94.8 µM | 50.8 µM | 73.2 µM | > 100 | – | – | – | – | – | – | – | – | –
CC(=O)C(O)N1C(=O)C=CC1=O (centres undefined) | – | – | > 25 | – | – | 25 | – | – | – | – | 13400 | 12000 | 2470 | – | – | – | – | – | –
CC1=NN(c2ccccc2)C(=O)/C1=C/c1ccc(O)cc1 | > 100 | > 100 µM | > 100 | > 100 | > 100 µM | > 100 | > 100 µM | > 100 µM | – | > 100 | – | – | – | – | – | – | – | – | –
CCCCCCCSc1nc2c(C(=O)OCC)ncn2c2ccccc12 | > 100 | > 100 µM | – | – | > 100 µM | – | – | > 100 µM | – | – | – | – | – | – | – | – | – | – | –
CC1=C2C(=O)c3ccccc3C(=O)[C@H]2[C@H]2CCO[C@H]2O1 | > 100 | 63.1 µM | > 100 | 51.7 | 35.9 µM | 36.6 | 67 µM | 48.1 µM | 43 µM | > 100 | – | – | – | – | – | – | – | – | –
CCCCCCNC(=O)c1cnc(Cl)cn1 | 16.6 | 74.9 µM | > 100 | 32.4 | 31.1 µM | – | 34.2 µM | – | 49.1 µM | 22.8 | – | – | – | – | – | – | – | – | –
Cc1c2cc[n+](CCN3CCCCC3)cc2c(C)c2c1[nH]c1ccc(O)cc12 | 3.49 | 33.7 µM and > 45.9 µM | 12.1 | 34.7 | 25.9 µM and 19.2 µM | 51 | 72.2 µM and > 100 µM | 53 µM and 37.4 µM | 5.4 µM and 18.7 µM | 28.6 | – | 27.4 | – | 9.29 | 3.17 | 14.3 | 2.7 | – | –
O=C1c2c(c3c4ccccc4[nH]c3c3ccc4ccccc4c23)C(=O)N1CCN1CCCCC1 | – | 3.16 µM | 7.87 | 5.08 | 2.92 µM | – | 3.31 µM | 15.3 µM | 22.6 µM | 24.7 | 1.95 | 0.797 | 1.68 | 1.65 | 1.33 | 1.95 | 2.2 | 1.61 | –
CC1C(O)C2(Oc3cc4c(c5c3[C@@H](CC5O)[C@H]2C)CCC2Cc3nc5c(nc3C[C@@]42C)CC2CCC3C4=C[C@H]6O[C@@]7(O[C@@](C)(CO)C[C@@H]7O)C(C)[C@@]6(O)[C@]4(C)[C@@H](O)CC3[C@]2(C)C5)OC1(C)C (some centres undefined) | – | – | – | – | 0.66 µM | – | > 3.67 µM | > 3.67 µM | 0.0842 µM | – | – | – | – | – | – | – | – | – | –
COc1ccc(-c2c3c(nc4nc(SCCc5ccccc5)nc(N)c24)CCCC3)cc1OC | > 100 | > 100 µM | > 100 | > 100 | > 100 µM | > 100 | > 100 µM | – | > 100 µM | > 100 | – | – | – | – | – | – | – | – | –
CC12CCC(C(=O)OC1=O)C(C)(C)O2 (centres undefined) | – | > 100 µM | > 100 | – | > 100 µM | > 100 | > 100 µM | > 100 µM | > 100 µM | > 100 | – | – | – | – | – | – | – | – | –
CN(C)CCCNc1ccc2ncn3c4ccccc4c(=O)c1c23 | 17.7 | > 100 µM | – | – | 49.2 µM | – | – | – | 92.2 µM | – | – | – | – | – | – | – | – | – | –
COc1ccc([C@@H]2ON(C)[C@H]3CN(C)C(=O)[C@@H]23)cc1 | > 100 | > 100 µM | > 100 | > 100 | – | > 100 | > 100 µM | > 100 µM | > 100 µM | > 100 | – | – | – | – | – | – | – | – | –
CCOC(=O)/C(Cl)=C(\C)Nc1nc2c(ccc3ccccc32)s1 | 77.1 | > 100 µM | 43.6 | > 100 | > 100 µM | > 100 | > 100 µM | 39.2 µM | > 100 µM | > 100 | – | – | – | – | – | – | – | – | –
CN1CCCCC1CCN1CCCCC1 (centres undefined) | – | > 100 µM | > 100 | > 100 | > 100 µM | > 100 | > 100 µM | > 100 µM | > 100 µM | > 100 | – | – | – | – | – | – | – | – | –
NC(=O)NN=C(CS)CS | – | 80.8 µM | – | – | 40 µM | – | 71.9 µM | > 77.5 µM | > 75.3 µM | – | – | – | – | – | – | – | – | – | –
Cc1cc(NCc2cc(Nc3ccnc4cc(Cl)ccc34)ccc2F)nc(N2CCCC2)n1 | 1.12 | – | – | – | – | – | – | – | – | – | – | – | – | – | – | – | – | – | 0.265
O=NC1C(Cl)C2CC1C1C(Br)C(Br)CC21 (centres undefined) | > 100 | > 100 µM | > 100 | > 100 | > 100 µM | – | > 100 µM | – | > 100 µM | > 100 | – | – | – | – | – | – | – | – | –

— PubChem BioAssay (NCI)
